According to patent US7488841B2, “Composition containing acyl group” (Asahi Kasei Chemicals Corporation, priority 2002, dated 2009):

Assay: Moisture absorption rate under high humidity and moisture retention under low humidity
Type: physicochemical
Conditions: 25° C.; for Moisture absorption rates under low humidity after different elapsed time (%): after 313 hours at high humidity
Method: The moisture absorption rate under high humidity and the moisture retention rate under low humidity were evaluated for the composition produced in Example 7 and urea as a contrast. Specifically, 1 g of dried sample was dried in a weighing bottle and weighed precisely, and left stand in a desiccator under relative humidity as high as 84% at 25° C. while measuring the sample weight with time until 313 hours has elapsed. Then, the same sample was transferred into a desiccator under relative humidity as low as 33% at 25° C., and left stand in the desiccator while measuring the sample weight with time in the same manner as above considering the point 313 hours has elapsed as a test starting point (0 hr). The moisture absorption rate was obtained in accordance with the following equation. Moisture absorption rate (%)=(Wt−W0/W0)×100 W0: dry weight before being left stand, Wt: weight at the time of each measuring

- deliquescent properties (during the course of moisture absorption, relative humidity 84%): showed its deliquescent properties
- moisture retention (left stand under low humidity, relative humidity 33%): released almost all its moisture
- Moisture absorption rates under low humidity after different elapsed time (%) (relative humidity 33%, 0 Hr): 72.7%
- Moisture absorption rates under low humidity after different elapsed time (%) (relative humidity 33%, 25 Hr): 1.2%
- Moisture absorption rates under low humidity after different elapsed time (%) (relative humidity 33%, 49 Hr): 0.3%
- Moisture absorption rates under low humidity after different elapsed time (%) (relative humidity 33%, 75 Hr): 0.4%
- Moisture absorption rates under low humidity after different elapsed time (%) (relative humidity 33%, 141 Hr): 0.3%
- Moisture absorption rates under high humidity after different elapsed time (%) (relative humidity 84%, 5 Hr): 0.2%
- Moisture absorption rates under high humidity after different elapsed time (%) (relative humidity 84%, 27 Hr): 3.2%
- Moisture absorption rates under high humidity after different elapsed time (%) (relative humidity 84%, 48 Hr): 7.4%
- Moisture absorption rates under high humidity after different elapsed time (%) (relative humidity 84%, 120 Hr): 24.7%
- Moisture absorption rates under high humidity after different elapsed time (%) (relative humidity 84%, 197 Hr): 42.6%
- Moisture absorption rates under high humidity after different elapsed time (%) (relative humidity 84%, 313 Hr): 72.7%
Compound: NC(N)=O [Urea, urea]
